Results reported in patent US10702497B2, “Use of acyl-homoserine lactone derivatives as anti-thrombotic agents” (The University of Toledo, priority 2015, dated 2020).

Key:
Format in all cases: cell-based
[1] = tested on: human platelets; assay: aggIgG-induced platelet activation, surface CD62P by flow cytometry; details: aggIgG 50 or 500 μg/ml; several concentrations of AHL
[2] = tested on: human platelets; assay: Platelet tyrosine phosphorylation (whole cell lysates, SDS-PAGE, anti-phosphotyrosine blot); details: 20 μM 12C-AHL
Protocol: FIGS. 3A-3C: Effect of AHLs on tyrosine phosphorylation. Human platelets were incubated with PBS or 12C-AHL then left unstimulated or stimulated with […] aggIgG or 0.1 Um′ thrombin. Whole cell lysates were prepared as described in the examples and blotted for anti-phosphotyrosine or anti-GAPDH as loading control. (FIG. 3A.) To determine band intensities, total band intensity in the phosphorylation gel was divided by the GAPDH signal and plotted as total band intensity. (FIG. 3B.) Intensity of the indicated band was compared to GAPDH and plotted as band intensity. (FIG. 3C.)
Results from the above experiments indicate that AHLs are altering platelet signaling downstream of FcγRIIa (the receptor for aggIgG) and thrombin receptors (PAR1/4) to a lesser extent. To test this, human platelets were incubated with PBS or 20 μM 12C-AHL for 15 min at 37° C. followed by stimulation with thrombin or aggIgG. Whole cell lysates were separated by SDS-PAGE and blotted for phosphotyrosine.

[3] = tested on: human platelets; assay: Thrombin-induced platelet activation, surface CD62P by flow cytometry; details: 0.1 U/ml thrombin; for maximal inhibitory concentration (MIC) for thrombin: AHL pre-incubation 15 minutes at 37° C., CD62P; for inhibition of platelet activation by thrombin: several concentrations of AHL
[4] = tested on: human platelets; assay: Platelet phagocytosis of IgG-coated beads through FcγRIIa (flow cytometry); details: FITC-IgG-coated 1.5 μm beads, 30 minutes
Protocol: FIGS. 4A-4C: Effect of AHLs on platelet-mediated phagocytosis. Human platelets were incubated as indicated in the examples and analyzed by flow cytometry for FITC-IgG and PE-anti-IgG. (FIG. 4A.) Platelets were incubated with PBS, 10C- or 12C-AHLs or cytochalasin D (positive control to block phagocytosis), then exposed to FITC-IgG-coated […] beads for 30 minutes, labeled with anti-IgG conjugated to PE and analyzed by flow cytometry for FITC-IgG and PE-anti-IgG. (FIG. 4B.) Platelets were treated as in FIG. 4B and surface CD62P expression was measured by flow cytometry. * p<0.01, ** p<0.005. (FIG. 4C.)
Polystyrene beads, 1.5 μm in diameter, (Polysciences, Warrington, Pa.) were opsonized for 2 hours at 21° C. in a 10 mg/ml solution FITC labeled human IgG (SigmaAldrich, St. Louis, Mo.) or unlabeled human IgG for controls. After washing three times in PBS, beads were then resuspended in buffer and counted via hemacytometer. […]
Samples were prepared for flow cytometry and platelets with associated beads were gated on CD42b+/FITC+ and analyzed for internal/external by the absence/presence of PE expression on a FACSCalibur (B-D Biosciences). […] Data were analyzed using Cell Quest (B-D Biosciences) and FlowJo (Tree Star, Inc., Ashland, Oreg.) software.
Because AHLs inhibit signaling (especially aggIgG-induced tyrosine phosphorylation), whether other platelet activities are inhibited was evaluated. […]

| SMILES | inhibition of platelet activation by aggIgG [1] | effect on tyrosine phosphorylation in unstimulated platelets ([2]; 15 min at 37° C., unstimulated) | effect on tyrosine phosphorylation in platelets stimulated with thrombin ([2]; 0.1 U/ml thrombin) | effect on phosphorylation induced by aggIgG ([2]; aggIgG stimulation) | maximal inhibitory concentration (MIC) for thrombin [3] | inhibition of platelet activation by thrombin [3] | inhibition of the phagocytic activity of platelets [4] |
| --- | --- | --- | --- | --- | --- | --- | --- |
| CCCCCCCCCC(=O)CC(=O)N[C@@H]1CCOC1=O [12C-AHL, N-oxo-dodecanoyl-L-homoserine lactone] | inhibit platelet activation | marginal effect | marginal effect | nearly completely abolished | 200 µM | inhibit platelet activation |  |
| CCCCCCCC(=O)CC(=O)N[C@H]1CCOC1=O [10C-AHL, N-(3-oxodecanoyl)-L-homoserine lactone] | inhibit platelet activation |  |  |  | 200 µM | inhibit platelet activation |  |
| C=C1[C@@H](C)[C@H]2[C@H](Cc3ccccc3)NC(=O)[C@]23[C@H](OC(C)=O)/C=C/[C@@](C)(O)C(=O)[C@@H](C)C/C=C/[C@H]3[C@@H]1O [cytochalasin D] |  |  |  |  |  |  | > 90% |
